{
  "source": "the supplement of paper PMC10307832",
  "experiment_in_all_cases": "relative viability (nuclei count vs DMSO), 5 days (fraction); higher = more cells survive",
  "key": {"[1]": {"compound": "CC1CC(=O)N(C2=CN=C(N=C2N1C3CCCC3)NC4=C(C=C(C=C4)C(=O)NC5CCN(CC5)C)OC)C [NPK76-II-72-1] + N=C(N)NC(=N)NCCc1ccccc1 [Phenformin] (partner 250 µM)", "procedure,_shortened": "(§1)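 Five library-drug doses in √10 steps were combined with a fixed anchor-drug dose, or a single drug was given alone, by pin tool to lung cancer cell lines in 1536-well plates the day after seeding. Nuclei were stained and counted after 5 days. Relative viability is the nuclei count in treated wells over that in vehicle wells, taken as the median of duplicate plates.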"}, "[2]": {"compound": "CC1CC(=O)N(C2=CN=C(N=C2N1C3CCCC3)NC4=C(C=C(C=C4)C(=O)NC5CCN(CC5)C)OC)C [NPK76-II-72-1] + Nc1ncn([C@H]2C[C@H](O)[C@@H](CO)O2)c(=O)n1 [Decitabine] (partner 2 µM)", "procedure,_shortened": "as §1"}, "BI-2536 + Linsitinib": {"compound": "CC[C@@H]1C(=O)N(C)c2cnc(Nc3ccc(C(=O)NC4CCN(C)CC4)cc3OC)nc2N1C1CCCC1 [BI-2536] + C[C@]1(O)C[C@@H](c2nc(-c3ccc4ccc(-c5ccccc5)nc4c3)c3c(N)nccn32)C1 [Linsitinib] (partner 1 µM)", "procedure,_shortened": "as §1"}, "[3]": {"compound": "CC1CC(=O)N(C2=CN=C(N=C2N1C3CCCC3)NC4=C(C=C(C=C4)C(=O)NC5CCN(CC5)C)OC)C [NPK76-II-72-1] + Nc1nc2[nH]cc(CCc3ccc(C(=O)N[C@@H](CCC(=O)O)C(=O)O)cc3)c2c(=O)[nH]1 [Pemetrexed] (partner 0.2 µM)", "procedure,_shortened": "as §1"}},
  "data": [
    {"cell line": "UMC-11", "values": [
      {"measurement": "relative viability", "setting": "[1]; first compound 0.01 µM", "result": 0.318},
      {"measurement": "relative viability", "setting": "[1]; first compound 0.03162 µM", "result": 0.32},
      {"measurement": "relative viability", "setting": "[1]; first compound 0.1 µM", "result": 0.346},
      {"measurement": "relative viability", "setting": "[1]; first compound 1 µM", "result": 0.344},
      {"measurement": "relative viability", "setting": "[2]; first compound 0.01 µM", "result": 0.617},
      {"measurement": "relative viability", "setting": "[2]; first compound 0.03162 µM", "result": 0.57},
      {"measurement": "relative viability", "setting": "[2]; first compound 0.1 µM", "result": 0.683},
      {"measurement": "relative viability", "setting": "[2]; first compound 0.3162 µM", "result": 0.505},
      {"measurement": "relative viability", "setting": "[2]; first compound 1 µM", "result": 0.736},
      {"measurement": "relative viability", "setting": "BI-2536 + Linsitinib; first compound 0.01 µM", "result": 1.02},
      {"measurement": "relative viability", "setting": "BI-2536 + Linsitinib; first compound 0.03162 µM", "result": 0.967},
      {"measurement": "relative viability", "setting": "BI-2536 + Linsitinib; first compound 0.1 µM", "result": 0.841},
      {"measurement": "relative viability", "setting": "BI-2536 + Linsitinib; first compound 0.3162 µM", "result": 0.207},
      {"measurement": "relative viability", "setting": "BI-2536 + Linsitinib; first compound 1 µM", "result": 0.172},
      {"measurement": "relative viability", "setting": "[3]; first compound 0.01 µM", "result": 0.79},
      {"measurement": "relative viability", "setting": "[3]; first compound 0.03162 µM", "result": 0.869},
      {"measurement": "relative viability", "setting": "[3]; first compound 0.1 µM", "result": 0.768},
      {"measurement": "relative viability", "setting": "[3]; first compound 0.3162 µM", "result": 0.728},
      {"measurement": "relative viability", "setting": "[3]; first compound 1 µM", "result": 0.697}
    ]}
  ]
}
